Assay results from PubChem BioAssay AID328 (DTP/NCI, 2004).
“And” between values parts separate entries of the source, which are not always exact repeats. Equal entries are not always repeated. Toxic doses and inconclusive results are not listed.

Tested on: BDF1 mice, P388 leukemia ip, median survival T/C
Assay: NCI In Vivo Anticancer Drug Screen. Data for tumor model P388 Leukemia (intraperitoneal) in B6D2F1 (BDF1) mice
Settings: endpoint: median survival time, higher = longer survival
Procedure, shortened: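 Each value expresses how treatment altered survival: treated-mouse outcome over vehicle-mouse outcome, both groups bearing the transplanted tumour.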

[1] = dose: 100.0 mg/kg/injection, schedule: Q01DX001 (ip), vehicle: Klucel (hydroxypropylcellulose) (HPC)
[2] = dose: 200.0 mg/kg/injection, schedule: Q01DX001 (ip), vehicle: Klucel (hydroxypropylcellulose) (HPC)
[3] = dose: 400.0 mg/kg/injection, schedule: Q01DX001 (ip), vehicle: Klucel (hydroxypropylcellulose) (HPC)
[4] = dose: 50.0 mg/kg/injection, schedule: Q01DX009 (ip), vehicle: saline with Tween-80
[5] = dose: 100.0 mg/kg/injection, schedule: Q01DX009 (ip), vehicle: saline with Tween-80
[6] = dose: 200.0 mg/kg/injection, schedule: Q01DX009 (ip), vehicle: saline with Tween-80
[7] = dose: 50.0 mg/kg/injection, schedule: Q04DX003 (ip), vehicle: Klucel (hydroxypropylcellulose) (HPC)
[8] = dose: 100.0 mg/kg/injection, schedule: Q04DX003 (ip), vehicle: Klucel (hydroxypropylcellulose) (HPC)

## C[Se]c1ncnc2c(C3OC(CO)C(O)C3O)[nH]nc12 (stereo not drawn)
dose: 0.5 mg/kg/injection, schedule: Q01DX009 (ip), vehicle: saline with Tween-80
  T/C: 118 % of control
dose: 1.0 mg/kg/injection, schedule: Q01DX009 (ip), vehicle: saline with Tween-80
  T/C: 90 % of control
dose: 2.0 mg/kg/injection, schedule: Q01DX009 (ip), vehicle: saline with Tween-80
  T/C: 109 % of control
dose: 4.0 mg/kg/injection, schedule: Q01DX009 (ip), vehicle: saline with Tween-80
  T/C: 100 % of control
dose: 6.25 mg/kg/injection, schedule: Q01DX009 (ip), vehicle: saline
  T/C: 114 % of control
dose: 8.0 mg/kg/injection, schedule: Q01DX009 (ip), vehicle: saline with Tween-80
  T/C: 90 % of control
dose: 12.5 mg/kg/injection, schedule: Q01DX009 (ip), vehicle: saline
  T/C: 98 % of control
dose: 12.5 mg/kg/injection, schedule: Q04DX003 (ip), vehicle: saline
  T/C: 98 % of control
dose: 25.0 mg/kg/injection, schedule: Q04DX003 (ip), vehicle: saline
  T/C: 92 % of control

## CC(C)Oc1ccc(Nc2ccccc2)cc1
[1]
  T/C: 100 % of control
[2]
  T/C: 100 % of control
[3]
  T/C: 91 % of control

## O=C1c2c(Cl)cccc2C(c2ccccc2)c2cccc(Cl)c21
[4]
  T/C: 95 % of control
[5]
  T/C: 104 % of control
[6]
  T/C: 97 % of control

## CN(C)N=Nc1ccc(NC(N)=O)cc1
dose: 25.0 mg/kg/injection, schedule: Q04DX003 (ip), vehicle: saline + Tween-80 + alcohol
  T/C: 112 % of control

## BrCCCC[P+](c1ccccc1)(c1ccccc1)c1ccccc1
dose: 6.25 mg/kg/injection, schedule: Q01DX010 (ip), vehicle: saline
  T/C: 113 % of control
dose: 12.5 mg/kg/injection, schedule: Q01DX010 (ip), vehicle: saline
  T/C: 118 % of control

## O=S(=O)(F)c1cccc(C[P+](c2ccccc2)(c2ccccc2)c2ccccc2)c1
dose: 5.5 mg/kg/injection, schedule: Q01DX009 (ip), vehicle: Klucel (hydroxypropylcellulose) (HPC)
  T/C: 118 % of control
dose: 70.0 mg/kg/injection, schedule: Q04DX003 (ip), vehicle: Klucel (hydroxypropylcellulose) (HPC)
  T/C: 118 % of control and 120 % of control
dose: 73.0 mg/kg/injection, schedule: Q04DX003 (ip), vehicle: Klucel (hydroxypropylcellulose) (HPC)
  T/C: 118 % of control
dose: 170.0 mg/kg/injection, schedule: Q04DX003 (ip), vehicle: Klucel (hydroxypropylcellulose) (HPC)
  T/C: 95 % of control
dose: 255.0 mg/kg/injection, schedule: Q04DX003 (ip), vehicle: Klucel (hydroxypropylcellulose) (HPC)
  T/C: 108 % of control and 120 % of control

## Nc1ccc2c(-c3ccccc3)cc(NCCCN3CCOCC3)nc2n1
dose: 100.0 mg/kg/injection, schedule: Q04DX003 (ip), vehicle: saline
  T/C: 104 % of control
dose: 200.0 mg/kg/injection, schedule: Q04DX003 (ip), vehicle: saline
  T/C: 100 % of control

## O=C(C=C(C(F)(F)F)C(F)(F)F)c1cccc(Cl)c1
dose: 6.25 mg/kg/injection, schedule: Q01DX009 (ip), vehicle: saline with Tween-80
  T/C: 122 % of control
dose: 12.5 mg/kg/injection, schedule: Q01DX009 (ip), vehicle: saline with Tween-80
  T/C: 100 % of control

## CCOP(=S)(OCC)OP(=S)(OCC)OCC
dose: 1.0 mg/kg/injection, schedule: Q04DX003 (ip), vehicle: other
  T/C: 111 % of control
dose: 2.0 mg/kg/injection, schedule: Q04DX003 (ip), vehicle: other
  T/C: 106 % of control
dose: 4.0 mg/kg/injection, schedule: Q04DX003 (ip), vehicle: other
  T/C: 106 % of control

## CCC(C)(C)c1ccc(Oc2ccccc2)c(N)c1
dose: 100.0 mg/kg/injection, schedule: Q04DX003 (ip), vehicle: other
  T/C: 109 % of control
dose: 200.0 mg/kg/injection, schedule: Q04DX003 (ip), vehicle: other
  T/C: 113 % of control

## CCN(Cc1ccc(Cl)c(Cl)c1)c1ccc2nc(N)nc(N)c2c1C
dose: 1.56 mg/kg/injection, schedule: Q01DX009 (ip), vehicle: water
  T/C: 105 % of control
dose: 6.25 mg/kg/injection, schedule: Q01DX009 (ip), vehicle: water
  T/C: 151 % of control
dose: 12.5 mg/kg/injection, schedule: Q01DX009 (ip), vehicle: water
  T/C: 98 % of control
dose: 12.5 mg/kg/injection, schedule: Q04DX003 (ip), vehicle: Klucel (hydroxypropylcellulose) (HPC)
  T/C: 107 % of control
dose: 12.5 mg/kg/injection, schedule: Q04DX003 (ip), vehicle: water
  T/C: 103 % of control and 118 % of control
dose: 25.0 mg/kg/injection, schedule: Q01DX009 (ip), vehicle: water
  T/C: 89 % of control
dose: 25.0 mg/kg/injection, schedule: Q04DX003 (ip), vehicle: Klucel (hydroxypropylcellulose) (HPC)
  T/C: 109 % of control
[7]
  T/C: 115 % of control
dose: 50.0 mg/kg/injection, schedule: Q04DX003 (ip), vehicle: water
  T/C: 159 % of control and 189 % of control
[8]
  T/C: 88 % of control
dose: 100.0 mg/kg/injection, schedule: Q04DX003 (ip), vehicle: water
  T/C: 109 % of control

## O=C(Nc1ccc(F)cc1)C12CC3CC(CC(C3)C1)C2
[4]
  T/C: 92 % of control
[5]
  T/C: 92 % of control
[6]
  T/C: 92 % of control

## CCOC(=O)Cn1cnc2cc(Cl)c([N+](=O)[O-])cc2c1=O
[7]
  T/C: 96 % of control
[8]
  T/C: 104 % of control
dose: 200.0 mg/kg/injection, schedule: Q04DX003 (ip), vehicle: Klucel (hydroxypropylcellulose) (HPC)
  T/C: 102 % of control
dose: 400.0 mg/kg/injection, schedule: Q04DX003 (ip), vehicle: Klucel (hydroxypropylcellulose) (HPC)
  T/C: 109 % of control

## CC[C@H]1CN2CCc3cc(OC)c(OC)cc3[C@@H]2C[C@@H]1C[C@@H]1c2cc(OC)c(OC)cc2CCN1CCN(CCCl)CCCl
dose: 4.3 mg/kg/injection, schedule: Q04DX003 (ip), vehicle: saline with Tween-80
  T/C: 121 % of control
dose: 6.48 mg/kg/injection, schedule: Q04DX003 (ip), vehicle: saline with Tween-80
  T/C: 108 % of control
dose: 10.8 mg/kg/injection, schedule: Q04DX003 (ip), vehicle: saline with Tween-80
  T/C: 119 % of control
dose: 12.0 mg/kg/injection, schedule: Q04DX003 (ip), vehicle: saline with Tween-80
  T/C: 153 % of control
dose: 20.0 mg/kg/injection, schedule: Q04DX003 (ip), vehicle: saline with Tween-80
  T/C: 157 % of control

## CCCCCn1c(Cl)c(/C=N\Nc2ccccc2[N+](=O)[O-])c2ccccc21
[1]
  T/C: 105 % of control
[2]
  T/C: 96 % of control
[3]
  T/C: 118 % of control

## CC(C)C(=O)Nc1ccc(Cl)cc1
dose: 100.0 mg/kg/injection, schedule: Q01DX001 (ip), vehicle: saline with Tween-80
  T/C: 100 % of control
dose: 200.0 mg/kg/injection, schedule: Q01DX001 (ip), vehicle: saline with Tween-80
  T/C: 100 % of control
dose: 400.0 mg/kg/injection, schedule: Q01DX001 (ip), vehicle: saline with Tween-80
  T/C: 100 % of control

## C=C(C)[C@@H]1CC[C@]2(C)CC[C@]3(C)[C@H](CC[C@@H]4[C@@]5(C)CC[C@H](O)C(C)(C)[C@@H]5CC[C@]43C)[C@@H]12
dose: 50.0 mg/kg/injection, schedule: Q01DX009 (ip), vehicle: Klucel (hydroxypropylcellulose) (HPC)
  T/C: 93 % of control
dose: 100.0 mg/kg/injection, schedule: Q01DX009 (ip), vehicle: Klucel (hydroxypropylcellulose) (HPC)
  T/C: 101 % of control
dose: 200.0 mg/kg/injection, schedule: Q01DX009 (ip), vehicle: Klucel (hydroxypropylcellulose) (HPC)
  T/C: 105 % of control
dose: 400.0 mg/kg/injection, schedule: Q01DX009 (ip), vehicle: Klucel (hydroxypropylcellulose) (HPC)
  T/C: 97 % of control

## CCOC(=O)c1ccc(NS(=O)c2ccccc2)cc1 (stereo not drawn)
[4]
  T/C: 100 % of control
[5]
  T/C: 93 % of control
[6]
  T/C: 111 % of control
